ChEMBL document CHEMBL1135982, “New strategy for antedrug application: development of metalloproteinase inhibitors as antipsoriatic drugs” (J Med Chem, 2002)

Columns and labels:
[1] = molecular target: Disintegrin and metalloproteinase domain-containing protein 17 (Homo sapiens, UniProt P78536); test: Inhibition of heparin-binding epidermal growth factor (HB-EGF) shedding; type: functional
[2] = organism: Mus musculus; test: Activity against TPA-induced epidermal hyperplasia in mice, and epidermal thickness value was reported; type: functional; set-up: unit not given here
[3] = organism: Mus musculus; test: Activity against TPA-induced epidermal hyperplasia in mice, and percent decrease in TPA-induced hyperplasia was reported; type: functional
[4] = molecular target: Stromelysin-1 (Homo sapiens, UniProt P08254); test: Inhibition of Matrix metalloprotease-3 (MMP-3)
[5] = molecular target: Matrix metalloproteinase-9 (Homo sapiens, UniProt P14780); test: Inhibition of Matrix metalloprotease-9 (MMP-9)
[6] = molecular target: T1, Interstitial collagenase (Homo sapiens, UniProt P03956); test: Inhibition of Matrix metalloprotease-1 (MMP-1)
T1 sequence (P03956 whole entry): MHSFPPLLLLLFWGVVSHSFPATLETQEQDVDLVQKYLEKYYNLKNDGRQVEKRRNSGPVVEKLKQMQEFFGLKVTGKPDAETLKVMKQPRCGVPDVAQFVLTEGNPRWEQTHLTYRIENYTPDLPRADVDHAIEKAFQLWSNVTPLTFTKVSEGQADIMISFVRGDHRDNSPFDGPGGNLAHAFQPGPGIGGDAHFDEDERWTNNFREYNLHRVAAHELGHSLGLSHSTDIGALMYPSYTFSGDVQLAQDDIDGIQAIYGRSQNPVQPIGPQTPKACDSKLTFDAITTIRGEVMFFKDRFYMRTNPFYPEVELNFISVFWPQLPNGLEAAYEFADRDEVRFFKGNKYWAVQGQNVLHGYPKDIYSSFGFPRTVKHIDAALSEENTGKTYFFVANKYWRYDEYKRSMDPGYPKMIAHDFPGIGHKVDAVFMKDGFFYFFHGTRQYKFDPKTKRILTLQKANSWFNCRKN

[7] = molecular target: T2, Amphiregulin (Homo sapiens, UniProt P15514); test: In vitro amphiregulin shedding inhibition; type: functional
T2 sequence (P15514 whole entry): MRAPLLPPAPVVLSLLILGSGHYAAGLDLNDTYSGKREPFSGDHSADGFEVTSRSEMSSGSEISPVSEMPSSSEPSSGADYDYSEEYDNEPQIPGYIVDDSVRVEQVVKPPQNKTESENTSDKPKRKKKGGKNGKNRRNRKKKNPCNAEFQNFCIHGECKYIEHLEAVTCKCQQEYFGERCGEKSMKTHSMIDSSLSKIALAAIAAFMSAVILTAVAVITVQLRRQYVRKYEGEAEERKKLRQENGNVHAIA

[8] = organism: Homo sapiens; test: Stability in human plasma and percentage of compound remained after 60 minutes was reported; type: functional, cell-free

Sequence of Disintegrin and metalloproteinase domain-containing protein 17 (P78536 whole entry, the tested form may be a part): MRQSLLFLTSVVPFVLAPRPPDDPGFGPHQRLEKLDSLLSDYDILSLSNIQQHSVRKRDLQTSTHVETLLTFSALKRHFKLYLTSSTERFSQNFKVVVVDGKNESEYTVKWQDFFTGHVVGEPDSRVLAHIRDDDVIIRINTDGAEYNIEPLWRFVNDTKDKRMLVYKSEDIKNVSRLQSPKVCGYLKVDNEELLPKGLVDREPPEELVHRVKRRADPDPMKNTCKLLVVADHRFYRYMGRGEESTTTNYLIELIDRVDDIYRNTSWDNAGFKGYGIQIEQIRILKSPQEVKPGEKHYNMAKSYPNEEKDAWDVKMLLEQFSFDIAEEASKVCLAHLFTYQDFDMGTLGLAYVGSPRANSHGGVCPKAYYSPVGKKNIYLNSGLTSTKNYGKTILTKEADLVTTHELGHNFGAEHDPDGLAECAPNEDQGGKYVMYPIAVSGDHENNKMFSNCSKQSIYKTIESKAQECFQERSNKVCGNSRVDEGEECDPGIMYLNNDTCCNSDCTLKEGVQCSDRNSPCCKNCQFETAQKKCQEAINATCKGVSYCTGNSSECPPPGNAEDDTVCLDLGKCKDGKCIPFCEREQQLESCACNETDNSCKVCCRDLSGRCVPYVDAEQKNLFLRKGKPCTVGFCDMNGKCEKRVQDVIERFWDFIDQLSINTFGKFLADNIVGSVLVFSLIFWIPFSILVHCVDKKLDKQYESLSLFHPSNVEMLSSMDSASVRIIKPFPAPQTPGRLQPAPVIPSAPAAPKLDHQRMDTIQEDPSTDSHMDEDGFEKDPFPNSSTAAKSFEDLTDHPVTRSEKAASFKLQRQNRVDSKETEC
Sequence of Matrix metalloproteinase-9 (P14780 whole entry): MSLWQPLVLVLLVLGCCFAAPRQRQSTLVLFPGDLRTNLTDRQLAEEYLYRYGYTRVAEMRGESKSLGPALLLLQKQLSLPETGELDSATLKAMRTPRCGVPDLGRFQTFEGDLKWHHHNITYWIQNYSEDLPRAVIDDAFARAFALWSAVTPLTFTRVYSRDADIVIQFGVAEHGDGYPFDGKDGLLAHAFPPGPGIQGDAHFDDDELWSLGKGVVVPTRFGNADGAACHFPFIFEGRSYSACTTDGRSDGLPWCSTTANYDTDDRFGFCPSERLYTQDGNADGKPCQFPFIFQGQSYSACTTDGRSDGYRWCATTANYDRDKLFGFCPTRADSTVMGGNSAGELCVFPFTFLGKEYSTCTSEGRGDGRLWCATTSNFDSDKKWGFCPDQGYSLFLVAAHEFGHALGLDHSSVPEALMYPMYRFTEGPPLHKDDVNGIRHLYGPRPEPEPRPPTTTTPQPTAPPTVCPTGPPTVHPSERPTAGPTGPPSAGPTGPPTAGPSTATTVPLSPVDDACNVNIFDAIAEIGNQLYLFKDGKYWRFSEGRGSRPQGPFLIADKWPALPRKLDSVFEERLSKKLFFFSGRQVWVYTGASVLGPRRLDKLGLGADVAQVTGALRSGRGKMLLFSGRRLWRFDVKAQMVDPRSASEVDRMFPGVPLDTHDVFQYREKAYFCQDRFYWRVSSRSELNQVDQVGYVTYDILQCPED
Sequence of Stromelysin-1 (P08254 whole entry): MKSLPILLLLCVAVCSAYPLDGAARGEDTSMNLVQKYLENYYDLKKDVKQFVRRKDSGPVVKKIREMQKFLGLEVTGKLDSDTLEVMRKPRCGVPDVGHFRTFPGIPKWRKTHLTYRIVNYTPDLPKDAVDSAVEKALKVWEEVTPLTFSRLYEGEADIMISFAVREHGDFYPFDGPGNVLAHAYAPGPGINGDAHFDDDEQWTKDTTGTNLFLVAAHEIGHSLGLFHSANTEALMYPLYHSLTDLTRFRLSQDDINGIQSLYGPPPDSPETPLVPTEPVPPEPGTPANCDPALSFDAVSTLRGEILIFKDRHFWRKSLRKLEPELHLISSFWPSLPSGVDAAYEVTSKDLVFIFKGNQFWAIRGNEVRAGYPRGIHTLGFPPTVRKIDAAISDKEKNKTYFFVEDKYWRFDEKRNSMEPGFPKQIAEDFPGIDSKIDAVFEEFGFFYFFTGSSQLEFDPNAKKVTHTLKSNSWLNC

Structure (SMILES) | IC50 [1] [nM] | Epidermal thickness [2] | Decrease [3] [%] | Ki [4] [nM] | Ki [5] [nM] | Ki [6] [nM] | IC50 [7] [nM] | Stability [8] [%]
COc1ccc(P(=O)(OC)N2Cc3ccccc3CC2C(=O)NO)cc1 (stereo unspecified) | < 1000 |  |  |  |  |  |  | 
CCCCCCCCCCCCCC(=O)O[C@@H]1[C@@H](C)[C@]2(O)C3C=C(C)C(=O)[C@@]3(O)CC(CO)=C[C@H]2[C@@H]2C(C)(C)[C@]12OC(C)=O.CCO[P@@](=O)(c1ccc(OC)cc1)N1Cc2ccccc2C[C@@H]1C(=O)NO (stereo partly specified) |  | <44.4 | 45.6 |  |  |  |  | 
CCCCCCCCCCCCCC(=O)O[C@@H]1[C@@H](C)[C@@]2(O)[C@@H](C=C(CO)C[C@]3(O)C(=O)C(C)=C[C@@H]23)[C@@H]2C(C)(C)[C@]12OC(C)=O [PHORBOL MYRISTATE ACETATE] |  | 62.2 |  |  |  |  |  | 
O=C(NO)C1Cc2ccccc2CN1 (stereo unspecified) | > 10000 |  |  | > 650 | > 800 |  |  | 
COc1ccc([P@](=O)(OCC(F)(F)F)N2Cc3ccccc3C[C@@H]2C(=O)NO)cc1 | 730 |  |  | 6.75 | 3.68 | 6.57 | 950 | 
CCCCCCCCCCCCCC(=O)O[C@@H]1[C@@H](C)[C@]2(O)C3C=C(C)C(=O)[C@@]3(O)CC(CO)=C[C@H]2[C@@H]2C(C)(C)[C@]12OC(C)=O.COc1ccc([P@](=O)(OCC(F)(F)F)N2Cc3ccccc3C[C@@H]2C(=O)NO)cc1 (stereo partly specified) |  | <30.5 | 81.3 |  |  |  |  | 
COc1ccc([P@](=O)(OCCC(F)(F)F)N2Cc3ccccc3C[C@@H]2C(=O)NO)cc1 | 310 |  |  | 3.33 | 4.46 | 2.21 | 970 | 99
CCO[P@](=O)(c1ccc(OC)cc1)N1Cc2ccccc2C[C@@H]1C(=O)NO | > 10000 |  |  |  | > 800 |  |  | 
CCO[P@@](=O)(c1ccc(OC)cc1)N1Cc2ccccc2C[C@@H]1C(=O)NO | 230 |  |  | 5.2 | 5.05 | 4.59 | 350 | 100
COc1ccc([P@](=O)(OCCF)N2Cc3ccccc3C[C@@H]2C(=O)NO)cc1 | 180 |  |  | 9.07 | 10.5 | 10.5 | 470 | 96
COc1ccc([P@](=O)(OCC(F)F)N2Cc3ccccc3C[C@@H]2C(=O)NO)cc1 | 510 |  |  | 6.67 | 4.97 | 6 | 1470 | 
CCCCCCCCCCCCCC(=O)O[C@@H]1[C@@H](C)[C@]2(O)C3C=C(C)C(=O)[C@@]3(O)CC(CO)=C[C@H]2[C@@H]2C(C)(C)[C@]12OC(C)=O.COc1ccc([P@](=O)(OCC(F)F)N2Cc3ccccc3C[C@@H]2C(=O)NO)cc1 (stereo partly specified) |  | <39.7 | 57.7 |  |  |  |  | 
